# Source: patent publication US20060069132A1, “Azolecarboxamide herbicides” (priority 2004, published 2006)
# How the values were obtained:
# large crabgrass = test: Test C pre-/postemergence herbicide test; format: in vivo, Digitaria sanguinalis; settings: for Plant response rating (0 = no effect, 100 = complete control), Crabgrass, Large / Plant response rating, Crabgrass, Large: preemergence
# Outline: (§1)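 Pre- and postemergence application, solvent/surfactant formulation; post at 1- to 4-leaf stage (2–18 cm). Greenhouse 12–14 d. Visual rating vs controls, 0 = no effect, 100 = complete control.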
# giant foxtail = test: Test C pre-/postemergence herbicide test; format: in vivo, Setaria faberi; settings: for Plant response rating (0 = no effect, 100 = complete control), Foxtail, Giant / Plant response rating, Foxtail, Giant: preemergence
# Outline: as §1
# pigweed = test: Test C pre-/postemergence herbicide test; format: in vivo, Amaranthus retroflexus; settings: for Plant response rating (0 = no effect, 100 = complete control), Pigweed / Plant response rating, Pigweed: preemergence
# Outline: as §1
# goosegrass = test: Test C pre-/postemergence herbicide test; format: in vivo, Eleusine indica; settings: for Plant response rating (0 = no effect, 100 = complete control), Goosegrass / Plant response rating, Goosegrass: preemergence
# Outline: as §1
# bermudagrass = test: Test C pre-/postemergence herbicide test; format: in vivo, Cynodon dactylon; settings: for Bermudagrass plant response rating: Preemergence
# Outline: as §1
# woolly cupgrass = test: Test C pre-/postemergence herbicide test; format: in vivo, Eriochloa villosa; settings: for Plant response rating (0 = no effect, 100 = complete control), Cupgrass, Woolly / Plant response rating, Cupgrass, Woolly: preemergence
# Outline: as §1
# ducksalad = test: Test C flooded paddy test; format: in vivo, Heteranthera limosa; settings: for Plant response rating, Ducksalad: 500 g ai/ha, visual rating after 12 to 14 days
# [1] = 125 g ai/ha, scale 0 (no effect) to 100 (complete control), visual, 12 to 14 days
# [2] = 250 g ai/ha, scale 0 to 100 (0 no effect, 100 complete control), visual, 12 to 14 days
# [3] = Preemergence, 500 g ai/ha, scale 0 to 100, 0 no effect, 100 complete control
# [4] = 125 g ai/ha, scale 0 (no effect) to 100 (complete control), visual, 12 to 14 days, preemergence
# [5] = 500 g ai/ha, scale 0 to 100, 0 no effect, 100 complete control
# [6] = 62 g ai/ha, preemergence, scale 0 to 100, 0 no effect, 100 complete control
# [7] = 250 g ai/ha, scale 0-100, preemergence
# [8] = 125 g ai/ha, scale 0 to 100 (0 no effect, 100 complete control)
# [9] = 250 g ai/ha, scale of 0 to 100, 0 is no effect, 100 is complete control
# [10] = scale 0 to 100 (0 no effect, 100 complete control)
# [11] = 500 g ai/ha, scale 0 to 100 (0 no effect, 100 complete control), visual, 12 to 14 days
compound,measurement,setting,value
CCN(C)C(=O)c1cccc(NC(=O)c2cc(C(C)(C)C)nn2CC)c1 [Compound 48],"Plant response rating (0 = no effect, 100 = complete control), Crabgrass, Large",large crabgrass; 62 g ai/ha,0
same,"Plant response rating, Crabgrass, Large",large crabgrass; [1],30
same,"Plant response rating, Crabgrass, Large",large crabgrass; [2],70
same,"Crabgrass, Large plant response rating",large crabgrass; [3],90
same,"Plant response rating (0 = no effect, 100 = complete control), Foxtail, Giant",giant foxtail; 62 g ai/ha,0
same,"Plant response rating, Foxtail, Giant",giant foxtail; [1],0
same,"Plant response rating, Foxtail, Giant",giant foxtail; [2],10
same,"Foxtail, Giant plant response rating",giant foxtail; [3],50
same,"Plant response rating (0 = no effect, 100 = complete control), Pigweed",pigweed; 62 g ai/ha,100
same,"Plant response rating, Pigweed",pigweed; [1],100
same,"Plant response rating, Pigweed",pigweed; [2],100
same,Pigweed plant response rating,pigweed; [3],100
same,"Plant response rating (0 = no effect, 100 = complete control), Goosegrass",goosegrass; 62 g ai/ha,20
same,"Plant response rating, Goosegrass",goosegrass; [1],70
same,"Plant response rating, Goosegrass",goosegrass; [2],90
same,Goosegrass plant response rating,goosegrass; [3],90
same,"Plant response rating (0 = no effect, 100 = complete control), Bermudagrass","bermudagrass; 62 g ai/ha, preemergence",80
same,"Plant response rating, Bermudagrass",bermudagrass; [4],90
same,"Plant response rating, Bermudagrass","bermudagrass; 250 g ai/ha, scale 0 to 100 (0 no effect, 100 complete control), visual, 12 to 14 days, preemergence",90
same,Bermudagrass plant response rating,bermudagrass; [5],95
same,"Plant response rating (0 = no effect, 100 = complete control), Cupgrass, Woolly",woolly cupgrass; 62 g ai/ha,0
same,"Plant response rating, Cupgrass, Woolly",woolly cupgrass; [1],0
same,"Plant response rating, Cupgrass, Woolly",woolly cupgrass; [2],5
same,"Cupgrass, Woolly plant response rating",woolly cupgrass; [3],20
same,Ducksalad plant response rating,"ducksalad; 16 g ai/ha, scale 0 to 100",0
same,Ducksalad plant response rating,"ducksalad; 31 g ai/ha, scale 0 to 100",0
same,Ducksalad plant response rating,"ducksalad; 62 g ai/ha, scale 0 to 100 (0 no effect, 100 complete control)",20
same,Ducksalad plant response rating,"ducksalad; 125 g ai/ha, scale of 0 to 100, 0 is no effect, 100 is complete control",40
CCc1nn(C(C)(C)C)nc1C(=O)Nc1cccc(C(=O)N(C)CC)c1 [Compound 384],"Plant response rating, Crabgrass, Large","large crabgrass; 62 g ai/ha, scale 0 to 100",100
same,"Plant response rating (0 = no effect, 100 = complete control), Crabgrass, Large",large crabgrass; 125 g ai/ha,100
same,"Plant response rating, Crabgrass, Large","large crabgrass; 250 g ai/ha, scale 0-100",100
same,"Plant response rating, Foxtail, Giant","giant foxtail; 62 g ai/ha, scale 0 to 100",95
same,"Plant response rating (0 = no effect, 100 = complete control), Foxtail, Giant",giant foxtail; 125 g ai/ha,100
same,"Plant response rating, Foxtail, Giant","giant foxtail; 250 g ai/ha, scale 0-100",100
same,"Plant response rating, Pigweed","pigweed; 62 g ai/ha, scale 0 to 100",100
same,"Plant response rating (0 = no effect, 100 = complete control), Pigweed",pigweed; 125 g ai/ha,100
same,"Plant response rating, Pigweed","pigweed; 250 g ai/ha, scale 0-100",100
same,"Plant response rating, Goosegrass","goosegrass; 62 g ai/ha, scale 0 to 100",85
same,"Plant response rating (0 = no effect, 100 = complete control), Goosegrass",goosegrass; 125 g ai/ha,95
same,"Plant response rating, Goosegrass","goosegrass; 250 g ai/ha, scale 0-100",100
same,"Plant response rating, Bermudagrass","bermudagrass; 31 g ai/ha, scale 0 to 100, 0 no effect, 100 complete control, last section of Table C (species set of preemergence test)",65
same,"Plant response rating, Bermudagrass",bermudagrass; [6],100
same,"Plant response rating (0 = no effect, 100 = complete control), Bermudagrass","bermudagrass; 125 g ai/ha, preemergence",100
same,"Plant response rating, Bermudagrass",bermudagrass; [7],100
same,"Plant response rating, Cupgrass, Woolly","woolly cupgrass; 62 g ai/ha, scale 0 to 100",55
same,"Plant response rating (0 = no effect, 100 = complete control), Cupgrass, Woolly",woolly cupgrass; 125 g ai/ha,75
same,"Plant response rating, Cupgrass, Woolly","woolly cupgrass; 250 g ai/ha, scale 0-100",95
same,Ducksalad plant response rating,"ducksalad; 62 g ai/ha, scale 0 to 100",80
same,Ducksalad plant response rating,ducksalad; [8],80
same,Ducksalad plant response rating,ducksalad; [9],80
same,"Plant response rating, Ducksalad",ducksalad; [10],85
CCC1=NN(C(C)(C)C)CC1C(=O)Nc1cc(C(=O)N(C)C)ccc1F (racemic) [Compound 343],"Plant response rating, Crabgrass, Large","large crabgrass; 62 g ai/ha, scale 0 to 100",50
same,"Plant response rating (0 = no effect, 100 = complete control), Crabgrass, Large",large crabgrass; 125 g ai/ha,80
same,"Plant response rating, Crabgrass, Large","large crabgrass; 250 g ai/ha, scale 0-100",80
same,"Plant response rating, Crabgrass, Large",large crabgrass; [11],100
same,"Plant response rating, Foxtail, Giant","giant foxtail; 62 g ai/ha, scale 0 to 100",40
same,"Plant response rating (0 = no effect, 100 = complete control), Foxtail, Giant",giant foxtail; 125 g ai/ha,50
same,"Plant response rating, Foxtail, Giant","giant foxtail; 250 g ai/ha, scale 0-100",70
same,"Plant response rating, Foxtail, Giant",giant foxtail; [11],80
same,"Plant response rating, Pigweed","pigweed; 62 g ai/ha, scale 0 to 100",80
same,"Plant response rating (0 = no effect, 100 = complete control), Pigweed",pigweed; 125 g ai/ha,90
same,"Plant response rating, Pigweed","pigweed; 250 g ai/ha, scale 0-100",100
same,"Plant response rating, Pigweed",pigweed; [11],100
same,"Plant response rating, Goosegrass","goosegrass; 62 g ai/ha, scale 0 to 100",60
same,"Plant response rating (0 = no effect, 100 = complete control), Goosegrass",goosegrass; 125 g ai/ha,75
same,"Plant response rating, Goosegrass","goosegrass; 250 g ai/ha, scale 0-100",80
same,"Plant response rating, Goosegrass",goosegrass; [11],85
same,"Plant response rating, Bermudagrass",bermudagrass; [6],60
same,"Plant response rating (0 = no effect, 100 = complete control), Bermudagrass","bermudagrass; 125 g ai/ha, preemergence",70
same,"Plant response rating, Bermudagrass",bermudagrass; [7],90
same,"Plant response rating, Bermudagrass","bermudagrass; 500 g ai/ha, scale 0 to 100 (0 no effect, 100 complete control), visual, 12 to 14 days, preemergence",90
same,"Plant response rating, Cupgrass, Woolly","woolly cupgrass; 62 g ai/ha, scale 0 to 100",40
same,"Plant response rating (0 = no effect, 100 = complete control), Cupgrass, Woolly",woolly cupgrass; 125 g ai/ha,65
same,"Plant response rating, Cupgrass, Woolly","woolly cupgrass; 250 g ai/ha, scale 0-100",70
same,"Plant response rating, Cupgrass, Woolly",woolly cupgrass; [11],100
same,Ducksalad plant response rating,"ducksalad; 62 g ai/ha, scale 0 to 100",40
same,Ducksalad plant response rating,ducksalad; [8],80
same,Ducksalad plant response rating,ducksalad; [9],90
same,"Plant response rating, Ducksalad",ducksalad; [10],90
CCn1nc(C(C)(C)C)cc1C(=O)Nc1cc(C(=S)N(C)C)ccc1F [Compound 294],"Plant response rating, Crabgrass, Large","large crabgrass; 62 g ai/ha, scale 0 to 100",70
same,"Plant response rating, Crabgrass, Large",large crabgrass; [1],95
same,"Plant response rating, Crabgrass, Large","large crabgrass; 250 g ai/ha, scale 0-100",100
same,"Plant response rating, Crabgrass, Large",large crabgrass; [11],100
same,"Plant response rating, Foxtail, Giant",giant foxtail; [1],80
same,"Plant response rating, Foxtail, Giant","giant foxtail; 250 g ai/ha, scale 0-100",90
same,"Plant response rating, Foxtail, Giant",giant foxtail; [11],90
same,"Plant response rating, Pigweed","pigweed; 62 g ai/ha, scale 0 to 100",100
same,"Plant response rating, Pigweed",pigweed; [1],100
same,"Plant response rating, Pigweed","pigweed; 250 g ai/ha, scale 0-100",100
same,"Plant response rating, Pigweed",pigweed; [11],100
same,"Plant response rating, Goosegrass","goosegrass; 62 g ai/ha, scale 0 to 100",80
same,"Plant response rating, Goosegrass",goosegrass; [1],80
same,"Plant response rating, Goosegrass","goosegrass; 250 g ai/ha, scale 0-100",85
same,"Plant response rating, Goosegrass",goosegrass; [11],100
same,"Plant response rating, Bermudagrass",bermudagrass; [6],70
same,"Plant response rating, Bermudagrass",bermudagrass; [4],80
same,"Plant response rating, Bermudagrass",bermudagrass; [7],90
same,Bermudagrass plant response rating,bermudagrass; [5],90
same,"Plant response rating, Cupgrass, Woolly","woolly cupgrass; 62 g ai/ha, scale 0 to 100",55
same,"Plant response rating, Cupgrass, Woolly",woolly cupgrass; [1],75
same,"Plant response rating, Cupgrass, Woolly","woolly cupgrass; 250 g ai/ha, scale 0-100",80
same,"Plant response rating, Cupgrass, Woolly",woolly cupgrass; [11],85
same,Ducksalad plant response rating,"ducksalad; 62 g ai/ha, scale 0 to 100",90
same,Ducksalad plant response rating,ducksalad; [8],95
same,Ducksalad plant response rating,ducksalad; [9],95
same,"Plant response rating, Ducksalad",ducksalad; [10],95
CCn1nc(C(C)(C)C)cc1C(=S)Nc1cc(C(=S)N(C)C)ccc1F [Compound 305],"Plant response rating, Crabgrass, Large","large crabgrass; 62 g ai/ha, scale 0 to 100",70
same,"Plant response rating, Crabgrass, Large",large crabgrass; [1],100
same,"Plant response rating, Crabgrass, Large","large crabgrass; 250 g ai/ha, scale 0-100",100
same,"Plant response rating, Crabgrass, Large",large crabgrass; [11],100
same,"Plant response rating, Foxtail, Giant","giant foxtail; 62 g ai/ha, scale 0 to 100",35
same,"Plant response rating, Foxtail, Giant",giant foxtail; [1],85
same,"Plant response rating, Foxtail, Giant","giant foxtail; 250 g ai/ha, scale 0-100",100
same,"Plant response rating, Foxtail, Giant",giant foxtail; [11],100
same,"Plant response rating, Pigweed","pigweed; 62 g ai/ha, scale 0 to 100",100
same,"Plant response rating, Pigweed",pigweed; [1],100
same,"Plant response rating, Pigweed","pigweed; 250 g ai/ha, scale 0-100",100
same,"Plant response rating, Pigweed",pigweed; [11],100
same,"Plant response rating, Goosegrass","goosegrass; 62 g ai/ha, scale 0 to 100",80
same,"Plant response rating, Goosegrass",goosegrass; [1],85
same,"Plant response rating, Goosegrass","goosegrass; 250 g ai/ha, scale 0-100",95
same,"Plant response rating, Goosegrass",goosegrass; [11],95
same,"Plant response rating, Bermudagrass",bermudagrass; [6],80
same,"Plant response rating, Bermudagrass",bermudagrass; [4],85
same,"Plant response rating, Bermudagrass",bermudagrass; [7],100
same,Bermudagrass plant response rating,bermudagrass; [5],100
same,"Plant response rating, Cupgrass, Woolly","woolly cupgrass; 62 g ai/ha, scale 0 to 100",20
same,"Plant response rating, Cupgrass, Woolly",woolly cupgrass; [1],60
same,"Plant response rating, Cupgrass, Woolly","woolly cupgrass; 250 g ai/ha, scale 0-100",60
same,"Plant response rating, Cupgrass, Woolly",woolly cupgrass; [11],70
same,Ducksalad plant response rating,"ducksalad; 62 g ai/ha, scale 0 to 100",0
same,Ducksalad plant response rating,ducksalad; [8],0
same,Ducksalad plant response rating,ducksalad; [9],0
same,"Plant response rating, Ducksalad",ducksalad; [10],0
